Laboratory results: patent publication US20080234323A1, “Amorphous and Three Crystalline Forms of Rimonabant Hydrochloride” (priority 2005, published 2008)

Assay: Solubility of different forms of Rimonabant hydrochloride in solvents
Type: physicochemical
Details: at R.T.
From the text: • All the forms were soluble in alcohols such as methanol, ethanol etc.

solubility in acetone: partly soluble | solubility in acetonitrile: partly soluble
SMILES: Cc1c(C(=O)NN2CCCCC2)nn(-c2ccc(Cl)cc2Cl)c1-c1ccc(Cl)cc1 [Form II, 5-(4-chlorophenyl)-1-(2,4-dichlorophenyl)-4-methyl-N-(piperidin-1-yl)pyrazole-3-carboxamide]
